From patent US20210341482A1, “CANCER BIOMARKERS” (NOTTINGHAM UNIVERSITY HOSPITALS NHS TRUST, priority 2018, published 2021) come the findings set out here.

The structures appear in SMILES notation.

The subject of assay [1] is ER+ early stage breast cancer. In words: Distant relapse risk after adjuvant systemic therapy, multicentre adjuvant therapy cohort stratified by SPAG5 mRNA. In kind it is in vivo, human. The text has this: A) Breast Cancer—Assessment Death and Distant Relapse Risks after Surgery and Receiving Adjuvant Systemic Therapy if Eligible in Early Stage Breast Cancer (i.e. Examples 26 to 37, 45, 49, 50, 53, 54 and 57)
The inventors evaluated the prognostic utility of SPAG5-mRNA expression in a large combined breast cancer (BC) cohort which was sourced from 15 publically-available, global datasets (n=3538) using the following access numbers.
All the databases had been downloaded and processed. The gene expression data were converted to a common scale (median equal to 0 and standard deviation equal to 1) in order to merge all of the studies data and create combined cohorts. Each sample in the data was standardised to a mean of 0 and standard deviation of 1. Then the data was median centred for each gene whereby median of each gene is 0.
SPAG5 gene expression data of each database were converted to a common scale (median equal to 0 and standard deviation equal to 1) in order to merge all of the studies data that used the same platform and create combined cohorts. To convert to a common scale each sample in the data was standardised to a mean of 0 and standard deviation of 1. Then the data was median centred for each gene whereby median of each gene is 0. Databases using same platform have been merged and the median expression was calculated. The median expression of SPAG5 transcript for each platform has been calculated and values equal to or higher than the median coded as +1 (overexpression). Values of less than the median have been coded 0 or low SPAG5.

Another assay deals with SPAG5 mRNA. In words: SPAG5 mRNA expression change and clinical response during preoperative endocrine therapy (letrozole). In kind it is in vivo, human. An excerpt:
B) Breast Cancer—Assessment of the Clinical Dynamic Response after Receiving Preoperative Endocrine Therapy (Aromatase Inhibitor) (i.e. Example 38)
The association between SPAG5 mRNA expression and clinical response after receiving preoperative therapy has been analysed in a total of 101 patients from a consecutive series of 255 postmenopausal women who presented to Western General Hospital in Edinburgh with large primary histologically confirmed estrogen receptor (ER)-rich (Allred scores 6 to 8) invasive breast cancer and who were recruited between 2003 and 2011 fulfilled the requirements to be included in this. All patients gave informed consent and the study was approved by the local regional ethics committee (2001/8/80 and 2001/8/81). Patients were treated with letrozole (Femara, 2.5 mg; Novartis Pharma AG, Basel, Switzerland) daily for at least 3 months. The clinical response was assessed by three-dimensional ultrasound measurements using dynamic (serial) changes in tumor volumes. Tumours with <50% reduction in volume were classified as non-responders. SPAG5 mRNA expression data were retrieved from the publically available gene expression microarray datasets at the National Center for Biotechnology Information Gene Expression Omnibus under access numbers (GSE59515, GSE55374, and GSE20181).
For “GSE59515” and “GSE55374” cases, RNA was extracted, labelled, and hybridized to HumanHT-12 v4 Illumina BeadChips (GPL10558) according to the standard protocol for NuGEN amplified samples. For GSE20181 cases, samples were processed on Affymetrix U133A gene chip (GPL96). There were no significant differences in clinical or pathologic features of patients or tumours from the three datasets. Illumina and Affymetrix data were independently normalized (quantile using the lumi Bioconductor package2l and the log scale robust multi-array analysis expression measure was implemented with the affy packages) and mapped to Ensembl gene identifiers using re-annotation and mapping for oligonucleotide array technologies and custom chip definition file, respectively, before detection filtering and batch correction with cross-platform normalization. Biopsies were taken from the same subjects at three time-points: pre-treatment, after 10-14 days Letrozol (2.5 mg/day, oral), and after 90 days Letrozol (2.5 mg/day, oral).

In the case of `CC/C(=C(\c1ccccc1)c1ccc(OCCN(C)C)cc1)c1ccccc1` [Tamoxifen], the distant relapse risk in assay [1] (ER+ LN+ early stage BC, SPAG5+ mRNA overexpression) is 46%; in assay [1] (ER+ LN+ early stage BC, low SPAG5 mRNA), 22%; in assay [1] (ER+ LN- early stage BC, SPAG5+ mRNA overexpression), 33%; in assay [1] (ER+ LN- early stage BC, low SPAG5 mRNA), 13%.

Consider `N#Cc1ccc(C(c2ccc(C#N)cc2)n2cncn2)cc1` [pre-operative endocrine therapy, letrozole], for which, in the assay with SPAG5 mRNA (ER+ tumours, after 2 weeks), the “cases with SPAG5 mRNA significantly downregulated vs pre-treatment biopsy” value was determined as 72%. Moreover, the “change of SPAG5 mRNA expression vs biopsy after 2 weeks” value in the assay with SPAG5 mRNA (ER+ tumours, after 12 weeks) is “significant further reduction”. Further, the “change of SPAG5 mRNA expression vs pre-treatment biopsy” value in the assay on SPAG5 mRNA (non-responding tumours, after 2 or 12 weeks) is “no significant change”. Besides, in the assay with SPAG5 mRNA (tumour volume reduced by 50%, after 2 weeks), the “responding tumours with significant down-regulation of SPAG5 mRNA” value is 76%.
